Experimental data reported in patent US20260109699A1, “AZOLE DERIVATIVES AS SHP2 INHIBITORS” (IRBM S.P.A., priority 2022, published 2026).

Key:
[1] = system: phospho-ERK1/2 (Thr202/Tyr204); experiment: Phospho-ERK cellular assay; type: cell-based; conditions: Homo sapiens; KYSE-520 cells, 2 h at 37° C, TR-FRET; read-out: pERK IC50
Description: ERK phosphorylation was detected using the “Advanced phospho-ERK1/2 (Thr202/Tyr204)” TR-FRET kit (Cisbio, Cat #64AERPEG/H), following the manufacturer reagents and instructions.
Briefly, 20.000/well KYSE-520 cells (DSMZ ACC 371) were plated in 6 μL RPMI-1640 (Invitrogen) growth medium, into 384 white low-volume high base TC microplates (Greiner). After an overnight incubation, cells were treated with DMSO serial diluted compounds and incubated for 2 h at 37° C. After incubation, 2 μL/well of 4×Lysis Buffer (Cisbio 64KL1FDF), were added and incubated with cells for 30 min on gentle shaking. Finally, lysates were added with 2 μL/well of Eu cryptate (donor) and D2 (acceptor) conjugated antibodies (as provided by the Cisbio kit #64AERPEG/H) diluted 1:100 in Detection Buffer (as provided by the Cisbio kit #64AERPEG/H). Plates were then sealed and incubated at rt in the dark. After an overnight incubation, the TR-FRET signal was detected on a suitable reader (Envision, PerkinElmer).
The lower the TR-FRET signal the higher the higher the SHP2 inhibition in cells.
The activity of each compound dilution was calculated as percentage between vehicle DMSO treated cells and no cells, 0% inhibition and 100% inhibition respectively. The percentage activity is fitted against the compound dilutions with a four-parameter logistic regression. The inflection point (i.e. the concentration at which half-maximal inhibition is achieved) is the IC50.
Legend: “+” indicates IC50 equal or higher than 0.5 μM; “++” indicates IC50 less than 0.5 μM and higher or equal to 0.1 μM; “+++” indicates IC50 less than 0.1 μM.

[2] = target: T1, SHP-2 enzyme (Met1-Leu525), SHP2wt (Homo sapiens, UniProt Q06124); experiment: SHP2 inhibition enzymatic assay; type: biochemical; conditions: 0.5 nM SHP-2 activated by 500 nM IRS1 peptide, 75 μM DiFMUP substrate
T1 construct: synthetized by Origene, Met1-Leu525, cat #TP750155; purchased Origene TP750155
T1 sequence (Q06124 1-525): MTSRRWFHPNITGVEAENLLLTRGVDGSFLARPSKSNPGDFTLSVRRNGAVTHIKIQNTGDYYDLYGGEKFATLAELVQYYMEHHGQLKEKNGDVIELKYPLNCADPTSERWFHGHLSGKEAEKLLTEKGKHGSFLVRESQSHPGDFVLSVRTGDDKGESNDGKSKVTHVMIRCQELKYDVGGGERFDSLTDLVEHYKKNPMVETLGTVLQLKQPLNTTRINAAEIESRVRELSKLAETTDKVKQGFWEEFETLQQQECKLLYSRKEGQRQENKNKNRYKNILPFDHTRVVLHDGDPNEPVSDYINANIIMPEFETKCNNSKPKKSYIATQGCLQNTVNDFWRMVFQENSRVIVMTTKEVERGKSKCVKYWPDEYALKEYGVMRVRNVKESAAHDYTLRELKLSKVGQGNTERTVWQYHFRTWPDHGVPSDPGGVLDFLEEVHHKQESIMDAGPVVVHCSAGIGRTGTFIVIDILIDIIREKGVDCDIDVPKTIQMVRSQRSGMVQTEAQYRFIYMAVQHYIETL
Description: The assay was performed as described in YP Chen et al, Nature (535) 2016. Assay volume of 20 μL/well was assembled in 384 well black polystyrene low-binding microplates (Greiner), using the following buffer: 60 mM HEPES pH 7.2, 75 mM NaCl, 75 mM KCl, 1 mM EDTA pH 8, 0.05% tween-20, 5 mM DTT. The SHP-2 enzyme (synthetized by Origene, Met1-Leu525, cat #TP750155) was used at a final concentration of 0.5 nM. The enzyme was activated by 500 nM IRS1 peptide (sequence: H2N-LN(pY)IDLDLV(dPEG8)LST(pY)ASINFQK-amide; Wang et al., iScience 25,104009, Apr. 15, 2022, https://doi.org/10.1016/j.isci.2022.104009) and incubated with 75 μM DiFMUP (Sigma) as substrate.
Briefly, DMSO serially diluted testing compounds were transferred to the bottom of the assay plate. SHP2 was then added together with the IRS1 peptide 30 min post incubation, the DiFMUP substrate was added to the reaction and incubated 30 min at rt. Finally 5 μL of 160 μM bpV (potassium bisperoxo[1,10-phenanthroline]oxovanadate [V], Sigma) were added to stop and quench the reaction. The fluorescence was detected by a microplate reader (Envision, PerkinElmer) according to the DiFMUP excitation and emission wavelength. The lower the fluorescence the higher the SHP2 inhibition.
The activity of each compound dilution was calculated as percentage of inhibition between vehicle (DMSO, 0% inhibition) and no enzyme (100% inhibition). The percentage inhibition is fitted against the compound dilutions with a four-parameter logistic regression. The inflection point (i.e. the concentration at which half-maximal inhibition is achieved) is the IC50.
Legend: A indicates IC50 less or equal to 0.05 μM; B indicates IC50 greater than 0.05 μM and lower or equal to 0.3 μM.

Row | Structure (SMILES) | IC50 [1] | IC50 [2]
1 | N[C@@H]1c2ccnn2CC12CCN(c1cnc(Sc3cc(F)cc(F)c3)cn1)CC2 [Example 50, (S)-1-(5-((3,5-difluorophenyl)thio)pyrazin-2-yl)-4′H,6′H-spiro[piperidine-4,5′-pyrrolo[1,2-b]pyrazol]-4′-amine] | < 100 nM | ≤ 50 nM
2 | N[C@@H]1c2ccnn2CC12CCN(c1cnc(Sc3cccc(F)c3)cn1)CC2 [Example 51, (S)-1-(5-((3-fluorophenyl)thio)pyrazin-2-yl)-4′H,6′H-spiro[piperidine-4,5′-pyrrolo[1,2-b]pyrazol]-4′-amine] | 100 to 500 nM | ≤ 50 nM
3 | N[C@@H]1c2ccnn2CC12CCN(c1cnc(Sc3cccc4c3COC4)cn1)CC2 [Example 52, (S)-1-(5-((1,3-dihydroisobenzofuran-4-yl)thio)pyrazin-2-yl)-4′H,6′H-spiro[piperidine-4,5′-pyrrolo[1,2-b]pyrazol]-4′-amine] | < 100 nM | ≤ 50 nM
4 | COc1cccc(Sc2cnc(N3CCC4(CC3)Cn3nccc3[C@H]4N)cn2)c1F [Example 60, (S)-1-(5-((2-fluoro-3-methoxyphenyl)thio)pyrazin-2-yl)-4′H,6′H-spiro[piperidine-4,5′-pyrrolo[1,2-b]pyrazol]-4′-amine] | < 100 nM | ≤ 50 nM
5 | Cc1c(Cl)cncc1Sc1cnc(N2CCC3(CC2)Cn2nccc2[C@H]3N)cn1 [Example 62, (S)-1-(5-((5-chloro-4-methylpyridin-3-yl)thio)pyrazin-2-yl)-4′H,6′H-spiro[piperidine-4,5′-pyrrolo[1,2-b]pyrazol]-4′-amine] | 100 to 500 nM | ≤ 50 nM
6 | N[C@@H]1c2ccnn2CC12CCN(c1cnc(Sc3ccccc3Cl)cn1)CC2 [Example 63, (S)-1-(5-((2-chlorophenyl)thio)pyrazin-2-yl)-4′H,6′H-spiro[piperidine-4,5′-pyrrolo[1,2-b]pyrazol]-4′-amine] | < 100 nM | ≤ 50 nM
7 | COc1ccc(Sc2cnc(N3CCC4(CC3)Cn3nccc3[C@H]4N)cn2)c(F)c1 [Example 64, (S)-1-(5-((2-fluoro-4-methoxyphenyl)thio)pyrazin-2-yl)-4′H,6′H-spiro[piperidine-4,5′-pyrrolo[1,2-b]pyrazol]-4′-amine] | < 100 nM | ≤ 50 nM
8 | Cn1cnc2ccc(Sc3cnc(N4CCC5(CC4)Cn4nccc4[C@H]5N)cn3)cc21 [Example 65, (S)-1-(5-((1-methyl-1H-benzo[d]imidazol-6-yl)thio)pyrazin-2-yl)-4′H,6′H-spiro[piperidine-4,5′-pyrrolo[1,2-b]pyrazol]-4′-amine] | < 100 nM | ≤ 50 nM
9 | N[C@@H]1c2ccnn2CC12CCN(c1cnc(Sc3cccc(C4CC4)c3F)cn1)CC2 [Example 69, (S)-1-(5-((3-cyclopropyl-2-fluorophenyl)thio)pyrazin-2-yl)-4′H,6′H-spiro[piperidine-4,5′-pyrrolo[1,2-b]pyrazol]-4′-amine] | < 100 nM | ≤ 50 nM

Now from value to molecule:

Row | IC50 [1] | IC50 [2] | Structure (SMILES)
10 | < 100 nM | ≤ 50 nM | N[C@@H]1c2ccnn2CC12CCN(c1cnc(Sc3cccc(F)c3F)cn1)CC2 [Example 53, (S)-1-(5-((2,3-difluorophenyl)thio)pyrazin-2-yl)-4′H,6′H-spiro[piperidine-4,5′-pyrrolo[1,2-b]pyrazol]-4′-amine]
11 | < 100 nM | ≤ 50 nM | N[C@@H]1c2ccnn2CC12CCN(c1cnc(Sc3ccnc(C(F)(F)F)c3Cl)cn1)CC2 [Example 54, (S)-1-(5-((3-chloro-2-(trifluoromethyl)pyridin-4-yl)thio)pyrazin-2-yl)-4′H,6′H-spiro[piperidine-4,5′-pyrrolo[1,2-b]pyrazol]-4′-amine]
12 | < 100 nM | ≤ 50 nM | COc1c(F)ccc(Sc2cnc(N3CCC4(CC3)Cn3nccc3[C@H]4N)cn2)c1F [Example 55, (S)-1-(5-((2,4-difluoro-3-methoxyphenyl)thio)pyrazin-2-yl)-4′H,6′H-spiro[piperidine-4,5′-pyrrolo[1,2-b]pyrazol]-4′-amine]
13 | < 100 nM | ≤ 50 nM | N[C@@H]1c2ccnn2CC12CCN(c1cnc(Sc3cccc(Cl)c3C(F)(F)F)cn1)CC2 [Example 56, (S)-1-(5-((3-chloro-2-(trifluoromethyl)phenyl)thio)pyrazin-2-yl)-4′H,6′H-spiro[piperidine-4,5′-pyrrolo[1,2-b]pyrazol]-4′-amine]
14 | < 100 nM | ≤ 50 nM | Cc1c(F)cccc1Sc1cnc(N2CCC3(CC2)Cn2nccc2[C@H]3N)cn1 [Example 57, (S)-1-(5-((3-fluoro-2-methylphenyl)thio)pyrazin-2-yl)-4′H,6′H-spiro[piperidine-4,5′-pyrrolo[1,2-b]pyrazol]-4′-amine]
15 | < 100 nM | ≤ 50 nM | N[C@@H]1c2ccnn2CC12CCN(c1cnc(Sc3cccc(C(F)F)c3F)cn1)CC2 [Example 58, (S)-1-(5-((3-(difluoromethyl)-2-fluorophenyl)thio)pyrazin-2-yl)-4′H,6′H-spiro[piperidine-4,5′-pyrrolo[1,2-b]pyrazol]-4′-amine]
16 | 100 to 500 nM | ≤ 50 nM | N[C@@H]1c2ccnn2CC12CCN(c1cnc(Sc3ccc(C(F)F)cc3F)cn1)CC2 [Example 59, (S)-1-(5-((4-(difluoromethyl)-2-fluorophenyl)thio)pyrazin-2-yl)-4′H,6′H-spiro[piperidine-4,5′-pyrrolo[1,2-b]pyrazol]-4′-amine]
17 | < 100 nM | ≤ 50 nM | N[C@@H]1c2ccnn2CC12CCN(c1cnc(Sc3cccc4ncccc34)cn1)CC2 [Example 61, (S)-1-(5-(quinolin-5-ylthio)pyrazin-2-yl)-4′H,6′H-spiro[piperidine-4,5′-pyrrolo[1,2-b]pyrazol]-4′-amine]
18 | < 100 nM | ≤ 50 nM | N#Cc1ccc(Sc2cnc(N3CCC4(CC3)Cn3nccc3[C@H]4N)cn2)c2cccnc12 [Example 66, (S)-5-((5-(4′-amino-4′H,6′H-spiro[piperidine-4,5′-pyrrolo[1,2-b]pyrazol]-1-yl)pyrazin-2-yl)thio)quinoline-8-carbonitrile]
19 | < 100 nM | ≤ 50 nM | N[C@@H]1c2ccnn2CC12CCN(c1cnc(Sc3ccc(C(F)(F)F)c4ncccc34)cn1)CC2 [Example 67, (S)-1-(5-((8-(trifluoromethyl)quinolin-5-yl)thio)pyrazin-2-yl)-4′H,6′H-spiro[piperidine-4,5′-pyrrolo[1,2-b]pyrazol]-4′-amine]
20 | < 100 nM | ≤ 50 nM | N[C@@H]1c2ccnn2CC12CCN(c1cnc(Sc3ccc(F)c4ncccc34)cn1)CC2 [Example 68, (S)-1-(5-((8-fluoroquinolin-5-yl)thio)pyrazin-2-yl)-4′H,6′H-spiro[piperidine-4,5′-pyrrolo[1,2-b]pyrazol]-4′-amine]
